Experimental findings from article PMC9592910, “Tissue distribution and integrated pharmacokinetic properties of major effective constituents of oral Gegen-Qinlian decoction in mice” (Frontiers in Pharmacology, 2022) are described below.

Marks after values point to notes of the source that are not given here.

Common to all, as to type: in vivo, Kunming mice
Series [1] can be described thus: Pharmacokinetics of GQD constituents in the portal vein of mice after oral GQD. The conditions noted are these: for Cmax / MRT / AUC(0-t) / half-life: oral GQD extract 6.1 g/kg; for AUC(0-t): read-out: AUC0–24 h; for half-life: read-out: T1/2 (converted). The protocol: (§1) Fifty-four Kunming mice were randomly divided into nine groups according to body weight and gender (3 male and three female in each group). Each group was orally administered with water solution (0.2 ml/10 g body weight) of the GQD extract powder at the dosage of 6.1 g/kg body weight. The dosage of GQD extract powder equals to 18 g/kg herbal pieces of GQD, which is equivalent to its clinical dosage. At each designed time point (0.08, 0.25, 0.5, 1, 2, 4, 8, 12, and 24 h) after oral administration, six mice were anesthetized with ether, and blood was collected from the portal vein (about 0.2 ml, aspirated in a 1 ml heparinized syringe) and then the systemic circulation (about 0.2 ml, collected in heparinized tubes after removal of the eyeball) of the mice to prepare plasma samples, and the livers and the colons were removed to prepare respective homogenate. After pretreatment, the concentrations of 19 major constituents of GQD in each sample were measured by the validated LC-MS/MS method (see “2.3”). Then the C-T curves of the constituents in the plasma and the tissue homogenates were respectively drawn and their pharmacokinetic parameters were respectively calculated.
(§2) It should be noted that the pharmacokinetic parameters of a GQD constituent was calculated based on its average concentration in six mice at each time point. The results were expressed as mean ± SD.

Series [2] is described as follows: Pharmacokinetics/tissue distribution of GQD constituents in the livers of mice after oral GQD. The settings on record: for half-life: read-out: T1/2 (converted). The protocol: (§3) The liver and the colon homogenates were prepared with 10 times (V: W) the volume of ascorbic acid solution (200 μg/ml). Then the homogenates were pretreated as plasma to obtain the tissue samples for LC-MS/MS analysis. Fifty-four Kunming mice were randomly divided into nine groups according to body weight and gender (3 male and three female in each group). […] Then the C-T curves of the constituents in the plasma and the tissue homogenates were respectively drawn and their pharmacokinetic parameters were respectively calculated. […] It should be noted that the pharmacokinetic parameters of a GQD constituent was calculated based on its average concentration in six mice at each time point. The results were expressed as mean ± SD.

The nature of series [3]: Pharmacokinetics/tissue distribution of GQD constituents in the colons of mice after oral GQD. The settings on record: for half-life: read-out: T1/2 (converted). The protocol: as §3
A short description of series [4]: Pharmacokinetics of GQD constituents in the systemic circulation of mice after oral GQD. The protocol:
as §1, §2

[5] abbreviates: both, Kunming, mouse, portal vein plasma, po, […], portal vein plasma, mice, oral GQD extract […], read-out: Tmax.
Where [6] appears, read: both, Kunming, mouse, portal vein plasma, mice.
Where [7] appears, read: both, Kunming, mouse, liver (homogenate), po, […], liver, mice, oral GQD extract […].
[8] abbreviates: both, Kunming, mouse, liver (homogenate), liver, mice, oral GQD extract 6.1 g/kg.
[9] abbreviates: both, Kunming, mouse, liver (homogenate), liver, mice, oral GQD extract 6.1 g/kg, read-out: Tmax.
[10] abbreviates: liver, mice, oral GQD extract […].
Setting [11] is: both, Kunming, mouse, colon (homogenate), po, […], colon, mice, oral GQD extract […].
[12] abbreviates: both, Kunming, mouse, colon (homogenate), colon, mice, oral GQD extract 6.1 g/kg.
[13] abbreviates: both, Kunming, mouse, colon (homogenate), colon, mice, oral GQD extract 6.1 g/kg, read-out: Tmax.
[14] abbreviates: portal vein plasma, mice, oral GQD extract […].
The mark [15] stands for this setting: colon, mice, oral GQD extract […].
Setting [16] is: systemic circulation plasma, mice, oral GQD […].

As a reminder, the Tmax is the time at which the peak concentration occurs. In general, Cmax refers to the maximum level reached in the sampled fluid or tissue. The MRT is the average time that molecules of a dose stay in the body.

On to `COc1ccc2cc3[n+](cc2c1O)CCc1cc2c(cc1-3)OCO2` [Berberrubine, berberrubine], for which the Tmax in series [1] (setting [5]) stood at 0.25 h; in series [2] (setting [9]), 4 h; in series [3] (setting [13]), 4 h. Besides, the highest concentration (Cmax) in series [1] (setting [6]) amounted to 10.3 ng/mL; in series [2] (setting [8]) it was 186 ng/g; in series [3] (setting [12]), 293 ng/g. The mean residence time (MRT) in series [1] (setting [6]) was found to be 4.4 h; in series [2] (setting [8]), 11 h; in series [3] (setting [12]), 10.1 h. Moreover, the AUC(0-t) in series [1] (setting [6]) amounted to 67 ng·h/mL. In addition, the results for the half-life in series [1] (setting [6]), in series [2] (setting [7]) and in series [3] (setting [11]) were 5.1 h, 15 to 19 h and 14.3 h, respectively. In series [2] (setting [10]), the T1/2 is 18.2# h.

Take `O=C1C[C@@H](c2ccc(O)cc2)Oc2cc(O)ccc21` [Liquiritigenin, liquiritigenin]: the T1/2 in series [1] (setting [14]) was determined as 5.9 h; in series [3] (setting [15]), 3.4 h. For the same compound, the Tmax in series [1] (setting [14]) was 2.0 h; in series [2] (setting [10]), 0.25 h; in series [3] (setting [15]), 4.0 h.

Take `COc1cc2c(cc1OC)-c1cc3ccc(OC)c(OC)c3c[n+]1CC2` [Palmatine, palmatine]: the T1/2 in series [1] (setting [14]) is on record as 3.0 h; in series [4] (setting [16]) it was 7.2 h; in series [2] (setting [10]), 4.6 h; in series [3] (setting [15]), 3.8 h. Also, the Tmax in series [1] (setting [14]) is listed as 4.0 h; in series [4] (setting [16]), 1.0 h; in series [2] (setting [10]), 2.0 h; in series [3] (setting [15]), 4.0 h.

As to `COc1cc2c(cc1OC)-c1cc3ccc4c(c3c[n+]1CC2)OCO4` [Epiberberine, epiberberine], the T1/2 is listed as 5.6 h in series [1] (mouse, in vivo, po, […]) and 3.3 h in series [3] (mouse, in vivo, po, […]). In addition, in series [2] (mouse, in vivo, po), the “AUC0–24 h liv/AUC0–24 h cir” value amounted to 9.9. In addition, the “AUC0–24 h liv/AUC0–24 h por” value in series [2] (mouse, in vivo, po) is 3.8.

In the case of `CC1(C)[C@@H](O[C@H]2O[C@H](C(=O)O)[C@@H](O)[C@H](O)[C@H]2O[C@@H]2O[C@H](C(=O)O)[C@@H](O)[C@H](O)[C@H]2O)CC[C@]2(C)[C@H]3C(=O)C=C4[C@@H]5C[C@@](C)(C(=O)O)CC[C@]5(C)CC[C@@]4(C)[C@]3(C)CC[C@@H]12` [Glycyrrhizic acid, glycyrrhizic acid], the Tmax in series [1] (setting [5]) worked out at 2 h; in series [2] (setting [9]) it was 1 h; in series [3] (setting [13]), 2 h. The Cmax in series [1] (setting [6]) is 77.1 ng/mL; in series [2] (setting [8]) it was 148 ng/g; in series [3] (setting [12]), 2010 ng/g. Also, the MRT in series [1] (setting [6]) came to 3.7 h; in series [2] (setting [8]), 2.8 h; in series [3] (setting [12]), 4.8 h. In series [1] (setting [6]), the AUC(0-t) was 422 ng·h/mL. For the same compound, the half-life in series [1] (setting [6]) was 2.9 h; in series [2] (setting [7]) it was 3.8 h; in series [3] (setting [11]), 3 to 4 h. Also, the T1/2 in series [3] (setting [15]) is 3.3 h.

Consider `COc1c(O[C@@H]2O[C@H](C(=O)O)[C@@H](O)[C@H](O)[C@H]2O)cc(O)c2c(=O)cc(-c3ccccc3)oc12` [Wogonoside, wogonoside], for which the T1/2 in series [1] (mouse, in vivo, po, […]) is 2.6 h; in series [4] (mouse, in vivo, po, […]) it was 3.9 h; in series [2] (mouse, in vivo, po, […]), 16.2 h. For the same compound, in series [2] (mouse, in vivo, po), the “AUC0–24 h liv/AUC0–24 h cir” value is recorded as 0.15. Moreover, the “AUC0–24 h liv/AUC0–24 h por” value in series [2] (mouse, in vivo, po) amounted to 0.03.

On to `COc1ccc2cc3[n+](cc2c1OC)CCc1cc(O)c(O)cc1-3` [Demethyleneberberine, demethyleneberberine], for which the T1/2 is listed as 11.1 h in series [2] (mouse, in vivo, po, […]) and 2.4 h in series [3] (mouse, in vivo, po, […]).
